Experiments:
genetically obese mice = assay: Anti-obesity activity: carcass lipid in genetically obese mice; format: in vivo
Method: The compounds were administered by oral gavage in water or carboxymethyl-cellulose suspension to genetically obese mice daily for 28 days. At the end of the time the carcass composition was determined.

[1] = tested on: inflammation induced in the rat ear by croton oil; assay: Anti-inflammatory activity: croton oil induced inflammation of the rat ear; format: in vivo; details: 2.0 mg/RAT EAR, 6 hours; activity = significant (5% level) reduction in ear weight vs non-drug treated control
Method: The method used is based on that described by G. Tonelli et al (Endocrinology, 77, 625-634, 1965). An inflammation is induced in the rat ear by the application of 50 μl of a 1% solution of croton oil in tetrahydrofuran, test compounds being dissolved in the irritant vehicle. After 6 hours the inflammation is assessed by killing the animals and weighing the ears. Topical anti-inflammatory activity of a compound is generally considered to be shown when a significant (5% level) reduction in ear weight is seen compared to non-drug treated control.

[2] = tested on: Blood platelet response to collagen; assay: Platelet aggregation inhibition activity (collagen-induced fall in blood platelet concentration); format: in vivo, Male CFLP mice; details: 2 h after p.o. dose; collagen 400 μg/kg i.v.; Aspirin 600 μmol (108 mg)/kg, p < 0.05; Example 3 5 μmol (1.92 mg)/kg, p = 0.01
Method: Male CFLP mice (ca 20 g, n=8) were dosed orally with compound or vehicle (controls) after an overnight fast. Two hours later each mouse received an intravenous dose of collagen (400 μg/kg, pH 6-6.6). Exactly 30 sec. after injection of collagen, each mouse was placed in a chamber of CO2 until respiration ceased. […] Each concentration was expressed as a percent of that obtained in a tail blood sample taken immediately before injection of collagen.

[3] = p.o. daily for 28 days, Ex. 5 mp 102-5: 4.8 mg/kg, control 21.10, Ex. 10: 8.6 mg/kg, control 23.13

Row | Compound | g LIPID/MOUSE, TREATED (genetically obese mice; [3]) [g LIPID/MOUSE] | % Inhibition of response to collagen [2] [%] | other results
1 | Cc1ccc(C[C@@H](C)NC[C@@H](O)c2cc3ccccc3o2)cc1 (relative stereo) [Example 5 mp 102-5, N-[2-(4-methylphenyl)-1-methylethyl]-2-(2-benzofuranyl)-2-hydroxyethanamine] | 16.16 | – | ACTIVITY (topical anti-inflammatory) [1]: Active
2 | CC(=O)Oc1ccccc1C(=O)O [Aspirin, reference compound] | – | 29 | –
3 | Cc1ccc(CC(C)NCC(O)c2cc3ccccc3o2)cc1 (stereo not drawn) [Example 1, N-[2-(4-Methylphenyl)-1-methylethyl]-2-(2-benzofuranyl)-2-hydroxy ethanamine] | – | – | g LIPID/MOUSE, TREATED (genetically obese mice; 4.8 mg/kg p.o. daily, 15 days only, control 16.25): 13.36 g LIPID/MOUSE
4 | COC(=O)COc1ccc(CC(C)NCC(O)c2cc3ccccc3o2)cc1 (stereo not drawn) [Example 3, N-[2-(4-Carbomethoxymethoxyphenyl)-1-methylethyl]-2-(2-benzofuranyl)-2-hydroxyethanamine] | – | 29 | –
5 | Cc1ccc(CCCNCC(O)c2cc3ccccc3o2)cc1 (stereo not drawn) [Example 10, N-[3-(4-Methylphenyl)propyl]-2-(2-benzofuranyl)-2-hydroxyethanamine] | 19.72 | – | –

Source: patent US4432993A, “Method of treating obesity hyperglycemia, inflammation and platelet aggregation” (priority 1980, dated 1984)
